From patent publication US9695193B2, “Inhibitors of Plasmodium falciparum equilibrative nucleoside transporter type I as anti-parasitic compounds” (The Trustees of Columbia University in the City of New York, priority 2013, dated 2017)

Target: T1, PfENT1 (Plasmodium falciparum, UniProt Q8IDM6)
T1 construct: expressed in transfected cells; host or cells: fui1Δ yeast (Saccharomyces cerevisiae), co-expressing GFP
Format: cell-based
Settings: primary HTS, compounds at 10 μM, 125 μM 5-FUrd
Procedure: A yeast-based high throughput screening (HTS) assay was used to identify compounds that inhibit PfENT1. The compounds described in this application were identified by screening four commercially available, chemical compound libraries obtained from Dr. Donald Landry's laboratory (Department of Medicine, Columbia University). These libraries contain approximately 80,000 unique chemical entities.
In the primary screen the compounds were tested at a concentration of 10 μM. Hits were identified by the growth of fui1Δ yeast expressing PfENT1 and Green Fluorescent Protein (GFP) in the presence of the cytotoxic nucleoside 5-fluorouridine (5-FUrd). 5-FUrd is transported by PfENT1. PfENT1 expressing fui1Δ yeast will only grow in the presence of 125 μM 5-FUrd if a PfENT1 inhibitor blocks the uptake of 5-FUrd into the yeast. Significant yeast growth in the HTS in 384 well plates was determined by two criteria: 1) turbidity as determined by the optical density at 620 nm (OD620) and 2) GFP fluorescence intensity. […] Hits had to be positive by both criteria.

T1 sequence (Q8IDM6 whole entry): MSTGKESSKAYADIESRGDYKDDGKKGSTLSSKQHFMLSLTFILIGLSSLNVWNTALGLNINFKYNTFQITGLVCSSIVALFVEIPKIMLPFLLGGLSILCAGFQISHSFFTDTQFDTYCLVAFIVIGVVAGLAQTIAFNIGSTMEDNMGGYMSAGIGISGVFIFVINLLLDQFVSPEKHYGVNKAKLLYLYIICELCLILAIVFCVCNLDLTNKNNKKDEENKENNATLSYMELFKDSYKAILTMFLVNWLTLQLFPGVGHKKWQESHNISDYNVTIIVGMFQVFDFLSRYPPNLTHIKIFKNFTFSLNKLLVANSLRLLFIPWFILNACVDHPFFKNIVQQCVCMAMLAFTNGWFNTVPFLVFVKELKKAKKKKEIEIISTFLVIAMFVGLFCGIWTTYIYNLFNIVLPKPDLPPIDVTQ

Row | SMILES | Avg Normalized % maximal activity [%]
1 | COC(=O)c1cc(NC(=O)c2cc3ccccc3o2)ccc1N1CCOCC1 [compound 73, methyl 5-[(1-benzofuran-2-ylcarbonyl)amino]-2-morpholin-4-ylbenzoate] | 6.43
2 | C#C[C@]1(O)CC[C@H]2[C@@H]3CCC4=C(CCC(=O)C4)[C@H]3CC[C@@]21C [compound 74] | 6.35
3 | Cc1cc(C)cc(C(=O)Nc2cccc(NC(=O)c3ccco3)c2)c1 [compound 75, N-{3-[(3,5-dimethylbenzoyl)amino]phenyl}-2-furamide] | 6.27
4 | O=C(Nc1cccc(NC(=O)c2ccco2)c1)c1cccc(Br)c1 [compound 76, N-{3-[(3-bromobenzoyl)amino]phenyl}-2-furamide] | 6.23
5 | CC(C(=O)O)c1ccc(-c2ccccc2)c(F)c1 (stereo not drawn) [compound 77] | 6.18
6 | COc1ccc(NC(=O)COc2ccc3ccc(=O)oc3c2)cc1 [compound 78, N-(4-methoxyphenyl)-2-[(2-oxo-2H-chromen-7-yl)oxy]acetamide] | 6.16
7 | CCOC(=O)c1ccc(NC(=O)c2nn(CC)cc2Br)cc1 [compound 79, ethyl 4-{[(4-bromo-1-ethyl-1H-pyrazol-3-yl)carbonyl]amino}benzoate] | 6.01
8 | COc1ccc(Cl)cc1C(=O)Nc1cccc(-c2nnc(-c3ccco3)o2)c1 [compound 80, 5-chloro-N-{3-[5-(2-furyl)-1,3,4-oxadiazol-2-yl]phenyl}-2-methoxybenzamide] | 5.99
9 | C1CCN2C[C@@H]3C[C@@H](CN4CCCC[C@@H]34)[C@H]2C1.O=S(=O)(O)O [compound 81] | 5.81
10 | O=P1(N(CCCl)CCCl)NCCCO1 (stereo not drawn) [compound 82] | 5.76
11 | CCOc1ccccc1C(=O)Nc1nc(C)c(C(=O)N(C)C)s1 [compound 83, 2-[(2-ethoxybenzoyl)amino]-N,N,4-trimethyl-1,3-thiazole-5-carboxamide] | 5.75
12 | NCCc1cc(O)c(O)cc1O [compound 84] | 5.72
13 | O=C(Nc1ccc2oc(-c3cccnc3)nc2c1)c1ccc(Br)o1 [compound 85, 5-bromo-N-[2-(3-pyridinyl)-1,3-benzoxazol-5-yl]-2-furamide] | 5.64
14 | Cc1ccc(C(=O)Nc2ccc(C(=O)N3CCCCC3)cc2)cc1 [compound 86, 4-methyl-N-[4-(1-piperidinylcarbonyl)phenyl]benzamide] | 5.63
15 | COc1ccc(Cl)cc1NC(=O)c1ccc2nccnc2c1 [compound 87, N-(5-chloro-2-methoxyphenyl)-6-quinoxaline-carboxamide] | 5.62
16 | COc1ccc(NC(=O)C(C)Oc2ccc3oc(=O)cc(C)c3c2)cc1 (stereo not drawn) [compound 88, N-(4-methoxyphenyl)-2-[(4-methyl-2-oxo-2H-chromen-6-yl)oxy]propanamide] | 5.42
17 | COc1cccc(C(=O)Nc2ccc(-c3nc4ncccc4o3)cc2C)c1 [compound 89, 3-methoxy-N-(2-methyl-4-[1,3]oxazolo [4,5-b]pyridin-2-ylphenyl)benzamide] | 5.35
18 | CSc1ccccc1C(=O)Nc1nc(=O)c2ccccc2[nH]1 [compound 90, 2-(methylthio)-N-(4-oxo-1,4-dihydro-2-quinazolinyl)benzamide] | 5.22
19 | CCOC(=O)c1ccc(NC(=O)c2nc(SC)ncc2Cl)cc1 [compound 91, ethyl 4-({[5-chloro-2-(methylthio)-4-pyrimidinyl]carbonyl}amino)benzoate] | 5.19
20 | COc1ccc(-c2cnc3ccccc3n2)cc1NC(=O)c1cccs1 [compound 92, N-(2-methoxy-5-(2-quinoxalinyl)phenyl]-2-thiophenecarboxamide] | 5.16
21 | Cc1cc(C)cc(C(=O)Nc2nnc(C)s2)c1 [compound 94, 3,5-dimethyl-N-(5-methyl-1,3,4-thiadiazol-2-yl)benzamide] | 5.01
22 | C[C@H]1CC[C@]2(NC1)O[C@H]1C[C@H]3[C@@H]4CC[C@H]5C[C@@H](O[C@@H]6O[C@H](CO)[C@H](O[C@@H]7O[C@H](CO)[C@@H](O)[C@H](O[C@@H]8OC[C@@H](O)[C@H](O)[C@H]8O)[C@H]7O[C@@H]7O[C@H](CO)[C@@H](O)[C@H](O)[C@H]7O)[C@H](O)[C@H]6O)CC[C@]5(C)[C@H]4CC[C@]3(C)[C@H]1[C@@H]2C [compound 95] | 5.00
23 | O=C(Nc1cccc(-c2nc3ncccc3o2)c1)c1ccccc1F [compound 96, 2-fluoro-N-(3-[1,3]oxazolo [4,5-b]pyridin-2-ylphenyl)benzamide] | 4.92

Row | SMILES | Avg Normalized % maximal activity [%]
24 | CNC(=O)c1nc(-c2ccc(Cl)cc2)no1 [compound 97, 3-(4-chlorophenyl)-N-methyl-1,2,4-oxadiazole-5-carboxamide] | 4.86
25 | COC(=O)c1ccccc1NC(=O)c1ccc(NC(=O)C2CCCO2)cc1 (stereo not drawn) [compound 99, methyl 2-({4-[(tetrahydro-2-furanylcarbonyl)amino]benzoyl}amino)benzoate] | 4.83
26 | O=C(Nc1cccnc1)c1cc2cc(C3CC3)cc(C(F)(F)F)n2n1 [compound 100] | 4.83
27 | COc1cc(NC(=O)c2cccc(Br)c2)nc(OC)n1 [compound 101, 3-bromo-N-(2,6-dimethoxy-4-pyrimidinyl)benzamide] | 4.78
28 | O=C1OC(CO)[C@@H](O)C(O)C1O (stereo partly drawn) [compound 102] | 4.76
29 | O=C(Nc1cc(-c2nc3ccccc3[nH]2)ccc1Cl)c1ccco1 [compound 103, N-[5-(1H-benzimidazol-2-yl)-2-chlorophenyl]-2-furamide] | 4.74
30 | Cc1cccc(N2C(=O)CC(NC3CCCC3)C2=O)c1 (stereo not drawn) [compound 104, 3-(cyclopentylamino)-1-(3-methylphenyl)-2,5-pyrrolidinedione] | 4.72
31 | Cc1ccccc1C(=O)Nc1ccc(-c2nc3ncccc3o2)cc1 [compound 105, 2-methyl-N-(4-[1,3]oxazolo[4,5-b]pyridin-2-ylphenyl)benzamide] | 4.70
32 | COc1ccc(NC(=O)C2Cc3ccccc3C(=O)O2)cc1 (stereo not drawn) [compound 106, N-(4-methoxyphenyl)-1-oxo-3,4-dihydro-1H-isochromene-3-carboxamide] | 4.69
33 | COc1ccc(N(CC(=O)Nc2ccc(Cl)cc2)S(C)(=O)=O)c(OC)c1 [compound 107, N~1~-(4-chlorophenyl)-N~2~-(2,4-dimethoxyphenyl)-N~2~-(methylsulfonyl)glycinamide] | 4.67
34 | CCc1nnc(NC(=O)c2sc3nc(C)cc(COC)c3c2N)s1 [compound 108, 3-amino-N-(5-ethyl-1,3,4-thiadiazol-2-yl)-4-(methoxymethyl)-6-methylthieno [2,3-b]pyridine-2-carboxamide] | 4.66
35 | CNC[C@H](O)[C@@H](O)[C@H](O)[C@H](O)CO [compound 109] | 4.65
36 | O=C(Nc1ccc(-c2nnc(-c3ccco3)o2)cc1)C1CCCCC1 [compound 110, N-{4-[5-(2-furyl)-1,3,4-oxadiazol-2-yl]phenyl} cyclohexane-carboxamide] | 4.61
37 | COCCNCCOc1ccc(C(C)(C)C)cc1C.O=C(O)C(=O)O [compound 111, [2-(4-tert-butyl-2-methylphenoxy)ethyl](2-methoxyethyl)amine oxalate] | 4.58
38 | COC(=O)c1ccccc1NC(=O)c1cccc(NC(=O)c2cccs2)c1C [compound 112, methyl 2-({2-methyl-3-[(2-thienylcarbonyl)amino]benzoyl}amino)benzoate] | 4.55
39 | CCSc1nnc(NC(=O)c2cccc(OC)c2)s1 [compound 113, N-[5-(ethylthio)-1,3,4-thiadiazol-2-yl]-3-methoxybenzamide] | 4.39
40 | CCC(=O)Nc1cccc(-c2nnc(-c3ccccc3C)o2)c1 [compound 114, N-{3-[5-(2-methylphenyl)-1,3,4-oxadiazol-2-yl]phenyl} propanamide] | 4.37
41 | Cc1ccc(NC(=O)CSc2nccn2C)cc1C [compound 115, N-(3,4-dimethylphenyl)-2-[(1-methyl-1H-imidazol-2-yl)thio]acetamide] | 4.36
42 | O=C(Nc1cccc(NC(=O)c2cccs2)c1)c1cc2ccccc2o1 [compound 116, N-{3-[(2-thienylcarbonyl)amino]phenyl)-1-benzofuran-2-carboxamide] | 4.34
43 | COc1cc(NC(=O)CSc2nccc(C)n2)c(OC)cc1Cl [compound 117, N-(4-chloro-2,5-dimethoxyphenyl)-2-[(4-methyl-2-pyrimidinyl)thio]acetamide] | 4.28
44 | Nc1nc(N)n(-c2ccccc2)n1 [compound 118, 1-phenyl-1H-1,2,4-triazole-3,5-diamine] | 4.28
45 | COCc1cc(C)nc2sc(C(=O)Nc3ccc(C(=O)OC)cc3)c(N)c12 [compound 119, methyl 4-({[3-amino-4-(methoxymethyl)-6-methylthieno[2,3-b]pyridin-2-yl]carbonyl}amino)benzoate] | 4.25
